Source: patent publication US6727234B2, “Isoprenoid analog compounds and methods of making and use thereof” (University of Iowa Research Foundation, priority 2001, dated 2004)

Legend:
[1] = Fluorescence of the compound; assay type: physicochemical
Description: Compound 58 can be used in enzyme experiments with FPTase and Ras in order to obtain standard Ras proteins labeled with the fluorescent isoprenoid analog. Similarly compound 62 can be used with GGPTase I or II and proteins such as Rho B to obtain other protein standards. Protein standards obtained from in vitro experiments can then be used to analyze cell lysates for the formation of analogous proteins through in vivo experiments. Compound 58 ^1H NMR(D2O) δ7.6 (1H), 7.2 (1H), 6.4 (2H), 5.4 (1H), 5.2 (1H), 4.4 (2H), 3.6 (3H), 3.4 (2H), 2.0 (2H), 1.8 (2H), 1.6 (3H), 1.4 (3H); and ^31P NMR −6.9 (d, 1P) −9.75 (d, 1P).

cell membranes = assay: Penetration of cell membranes to afford fluorescent cells; assay type: cell-based; details: affords fluorescent cells
[2] = Metabolic stability compared to previously prepared analogs; assay type: in vitro ADME; details: compared to other previously prepared analogs; attributed to amine linkage binding anthranilic acid to the terpenoid chain
Description: As exemplified in the reaction scheme below, Fischer esterification of commercial anthranilic acid provides the corresponding amino ester 54. Reductive amination of amine 54 with aldehyde 55, derived from SeO2 oxidation of geranyl acetate and subsequent MnO2 oxidation, gave the desired amine 56 and subsequent cleavage of the acetate gave the farnesol analog 57.

fluorescence [1]: highly fluorescent
penetration of cell membranes (cell membranes): readily penetrates cell membranes
Compound: COC(=O)c1ccccc1NC/C(C)=C/CC/C(C)=C/CO [Compound 57]
metabolic stability [2]: much greater degree of metabolic stability
